This experiment deals with IRAK4 (Homo sapiens (Human), UniProt Q9NWZ3). As to the kind of experiment: IRAK4 kinase activity, IMAP fluorescence polarization assay. As to conditions: 100 μM ATP. It counts as biochemical. In short, it runs like this:
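Fluorescence polarization (IMAP nanoparticle binding of phosphopeptide) reports activity after a 30 min, 25 °C reaction. Conditions: 100 μM ATP, 0.5 nM GST-IRAK4, 100 nM fluorescent peptide, 10 mM Tris pH 7.2, 1 mM MgCl2, 1 mM DTT, 0.01% Tween 20.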

The mark [1] stands for this setting: 0.5 nM GST tagged IRAK4, read-out: IRAK4 IC50.
The mark [2] stands for this setting: unit inferred, read-out: IRAK4 IC50.

Counter-ions that a name gives are not always drawn. Like-named read-outs stand apart in the source and are kept apart here.

Sequence of IRAK4 (Q9NWZ3 whole entry): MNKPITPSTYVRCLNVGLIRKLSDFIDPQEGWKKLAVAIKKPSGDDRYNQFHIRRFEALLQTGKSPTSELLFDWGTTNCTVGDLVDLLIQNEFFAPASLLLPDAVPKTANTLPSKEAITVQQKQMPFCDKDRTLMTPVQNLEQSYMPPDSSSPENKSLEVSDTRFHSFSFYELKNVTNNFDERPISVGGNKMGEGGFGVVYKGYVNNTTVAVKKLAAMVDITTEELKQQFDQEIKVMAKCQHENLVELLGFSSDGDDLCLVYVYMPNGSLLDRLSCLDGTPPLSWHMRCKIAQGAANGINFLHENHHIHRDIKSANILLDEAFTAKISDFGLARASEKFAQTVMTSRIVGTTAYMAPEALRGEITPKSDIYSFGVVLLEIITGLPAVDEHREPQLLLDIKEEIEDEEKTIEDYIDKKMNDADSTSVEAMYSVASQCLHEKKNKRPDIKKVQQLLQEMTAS

On to `CNC(=O)C1CN(c2nc(N[C@@H]3CCCNC3)c(-c3nc4ccccc4s3)c(=O)[nH]2)CCO1` (stereo partly drawn) [Example 287, 4-(5-(benzo[d]thiazol-2-yl)-6-oxo-4-((R)-piperidin-3-ylamino)-1,6-dihydropyrimidin-2-yl)-N-methylmorpholine-2-carboxamide], for which the IC50 (read-out: IC50) was determined as 110 nM.
`O=c1[nH]c(C2CCN(C3CCOCC3)CC2)nc(N[C@@H]2CCCNC2)c1-c1nc2ccccc2s1` [Example 234, (R)-5-(benzo[d]thiazol-2-yl)-6-(piperidin-3-ylamino)-2-(1-(tetrahydro-2H-pyran-4-yl)piperidin-4-yl)pyrimidin-4(3H)-one]: under “read-out: IC50”, the IC50 was determined as 440 nM.
Consider `CC(C)[C@H]1C[C@@H](Nc2nc(N3CCOCC3)[nH]c(=O)c2-c2nc3ccccc3s2)[C@H](O)[C@@H]1O` [Example 42, 5-(Benzo[d]thiazol-2-yl)-6-((1R,2S,3R,4R)-2,3-dihydroxy-4-isopropylcyclopentylamino)-2-morpholinopyrimidin-4(3H)-one.HCl], for which the IC50 under setting [1] turned out to be 72 nM.
On the same count and under the same terms, the value for `CS(=O)(=O)N1CCN(c2nc(N[C@@H]3C[C@H](CO)[C@@H](O)[C@H]3O)c(-c3nc4ccccc4s3)c(=O)[nH]2)CC1` [Example 12, 5-(Benzo[d]thiazol-2-yl)-6-((1R,2S,3R,4R)-2,3-dihydroxy-4-(hydroxymethyl)cyclopentylamino)-2-(4-(methylsulfonyl)piperazin-1-yl)pyrimidin-4(3H)-one.HCl] was 25 nM.
Take `O=C(NC1CCN(c2nc(N[C@@H]3CCCNC3)c(-c3nc4ccccc4s3)c(=O)[nH]2)CC1)OCc1ccccc1` [Example 323, Benzyl N-[1-[5-(1,3-benzothiazol-2-yl)-6-oxo-4-[[(3R)-piperidin-3-yl]amino]-1,6-dihydropyrimidin-2-yl]piperidin-4-yl]carbamate trifluoroacetic acid]: the IC50 (read-out: IC50) is 100 nM.
In the case of `Cc1ccc2sc(-c3c(N[C@@H]4CCCNC4)nc(N4CCOCC4)[nH]c3=O)nc2c1` [Example 341, 5-(5-methyl-1,3-benzothiazol-2-yl)-2-(morpholin-4-yl)-6-[[(3R)-piperidin-3-yl]amino]-3,4-dihydropyrimidin-4-one formic acid], the IC50 under setting [1] was 50 nM.
As for `O=c1[nH]c(N2CCC(c3ccncc3)CC2)nc(N[C@@H]2C[C@H](CO)[C@@H](O)[C@H]2O)c1-c1nc2ccccc2s1` [Example 72, 5-(benzo[d]thiazol-2-yl)-6-((1R,2S,3R,4R)-2,3-dihydroxy-4-(hydroxymethyl)cyclopentylamino)-2-(4-(pyridin-4-yl)piperidin-1-yl)pyrimidin-4(3H)-one], the IC50 under setting [2] was determined as 19 nM.
In the case of `O=c1[nH]c(N2CCOCC2)nc(NCCN2CCCCC2)c1-c1nc2ccccc2s1` [Example 257, 5-(1,3-benzothiazol-2-yl)-2-(morpholin-4-yl)-6-[[2-(piperidin-1-yl)ethyl]amino]-3,4-dihydropyrimidin-4-one], the half-inhibitory concentration (IC50) (read-out: IC50) was determined as 2 nM.
Consider `O=c1[nH]c(N2CC3CCC(C2)O3)nc(N[C@@H]2CCCNC2)c1-c1nc2ccccc2s1` [Example 300, 5-(1,3-benzothiazol-2-yl)-2-[8-oxa-3-azabicyclo[3.2.1]octan-3-yl]-6-[[(3R)-piperidin-3-yl]amino]-3,4-dihydropyrimidin-4-one; trifluoroacetic acid], for which the IC50 (read-out: IC50) is 43 nM.
Regarding `O=c1[nH]c(N2CCC3(CCN(c4ccc(Cl)cc4)C3)C2)nc(N[C@@H]2CCCNC2)c1-c1nc2ccccc2s1` (stereo partly drawn) [Example 331, 5-(1,3-benzothiazol-2-yl)-2-[7-(4-chlorophenyl)-2,7-diazaspiro[4.4]nonan-2-yl]-6-[[(3R)-piperidin-3-yl]amino]-3,4-dihydropyrimidin-4-one trifluoroacetic acid], the IC50 (read-out: IC50) stood at 47 nM.
On to `Cc1csc(-c2c(N[C@@H]3C[C@H](CO)[C@@H](O)[C@H]3O)nc(N3CCOCC3)[nH]c2=O)n1` [Example 32, 6-(((1R,2S,3R,4R)-2,3-Dihydroxy-4-(hydroxymethyl)cyclopentyl)amino)-5-(4-methylthiazol-2-yl)-2-morpholinopyrimidin-4(3H)-one.HCl], for which the IC50 under setting [1] is 26.6 nM.
In the case of `CC(O)CNc1nc(N2CCOCC2)[nH]c(=O)c1-c1nc2ccccc2s1` (stereo not shown) [Example 265, 5-(benzo[d]thiazol-2-yl)-6-(2-hydroxypropylamino)-2-morpholino-pyrimidin-4(3H)-one], the IC50 (read-out: IC50) was found to be 780 nM.
In the case of `O=c1[nH]c(N2CCOCC2)nc(N[C@@H]2CCCNC2)c1-c1cc2ccccc2cn1` [Example 225, (R)-5-(isoquinolin-3-yl)-2-morpholino-6-(piperidin-3-ylamino)pyrimidin-4(3H)-one], the IC50 (read-out: IC50) worked out at 466 nM.
Consider `O=c1[nH]c(N2CCOCC2)nc(N[C@@H]2CCCNC2)c1-c1nc(-c2cc(F)ccc2F)cs1` [Example 205], for which the half-inhibitory concentration (IC50) (read-out: IRAK4 IC50) came to 90 nM.
Turning to `O=c1[nH]c(N2CCOCC2)nc(N[C@H]2CNCC[C@@H]2F)c1-c1nc2ccccc2s1` [Example 213, 5-(benzo[d]thiazol-2-yl)-6-(((3S,4S)-4-fluoropiperidin-3-yl)amino)-2-morpholinopyrimidin-4(3H)-one], the IC50 (read-out: IC50) was 14 nM.
On to `CC(=O)NC1CCN(c2nc(N[C@@H]3CCCNC3)c(-c3ccc4ccccc4n3)c(=O)[nH]2)C1` (stereo partly drawn) [Example 165, N-(1-(6-oxo-4-((R)-piperidin-3-ylamino)-5-(quinolin-2-yl)-1,6-dihydropyrimidin-2-yl)pyrrolidin-3-yl)acetamide], for which the IC50 (read-out: IRAK4 IC50) was determined as 54 nM.
Regarding `O=c1[nH]c(N2CCOCC2)nc(N[C@@H]2C[C@@H]3CN[C@H]2C3)c1-c1nc2ccccc2s1` [Example 211, 6-((1S,4R,6R)-2-azabicyclo[2.2.1]heptan-6-ylamino)-5-(benzo[d]thiazol-2-yl)-2-morpholinopyrimidin-4(3H)-one], for the setting “read-out: IC50”, the IC50 was 191 nM.
On to `O=c1[nH]c(N2CCOCC2)nc(NC2CCCCC2O)c1-c1nc2ccccc2s1` (stereo not shown) [Example 269, 5-(benzo[d]thiazol-2-yl)-6-(2-hydroxycyclohexyl-amino)-2-morpholinopyrimidin-4(3H)-one], for which the IC50 (read-out: IC50) was 5600 nM.
Consider `N=C(N)CNc1nc(N2CCOCC2)[nH]c(=O)c1-c1nc2ccccc2s1` [Example 250, 2-[[5-(1,3-benzothiazol-2-yl)-2-(morpholin-4-yl)-6-oxo-1,6-dihydropyrimidin-4-yl]amino]ethanimidamide], for which the IC50 (read-out: IC50) was 300 nM.
As to `CC(C)Nc1nc(N[C@@H]2C[C@H](CO)[C@@H](O)[C@H]2O)c(-c2nc3ccccc3s2)c(=O)[nH]1` [Example 5, 5-(Benzo[d]thiazol-2-yl)-6-((1R,2S,3R,4R)-2,3-dihydroxy-4-(hydroxymethyl)cyclopentylamino)-2-(isopropylamino)pyrimidin-4(3H)-one.HCl], under setting [1], the IC50 stood at 151 nM.
`CS(=O)(=O)C1CN(c2nc(N[C@@H]3C[C@H](CO)[C@@H](O)[C@H]3O)c(-c3nc4ccccc4s3)c(=O)[nH]2)C1` [Example 71, 5-(benzo[d]thiazol-2-yl)-6-((1R,2S,3R,4R)-2,3-dihydroxy-4-(hydroxymethyl)cyclopentylamino)-2-(3-(methylsulfonyl)azetidin-1-yl)pyrimidin-4(3H)-one]: under setting [2], the IC50 was 17.9 nM.
Turning to `O=c1[nH]c(N2CCc3ccncc3C2)nc(N[C@@H]2C[C@H](CO)[C@@H](O)[C@H]2O)c1-c1nc2ccccc2s1` [Example 65, 5-(benzo[d]thiazol-2-yl)-2-(3,4-dihydro-2,7-naphthyridin-2(1H)-yl)-6-((1R,2S,3R,4R)-2,3-dihydroxy-4-(hydroxymethyl)cyclopentylamino)pyrimidin-4(3H)-one], the IC50 under setting [2] is 7.2 nM.

A word on the IC50: it is the midpoint of a concentration-inhibition curve.
